According to the supplement of paper PMC10307832:

Experiments:
Assay in all cases: relative viability (nuclei count vs DMSO), 5 days (fraction); higher = more cells survive
[1] = compound: Cc1ccc(NC(=O)c2ccc(CN3CCN(C)CC3)cc2)cc1Nc1nccc(-c2cccnc2)n1 [Imatinib] + O=C(CCCCCCC(=O)Nc1ccccc1)NO [Vorinostat] (partner 1 µM)
Method in brief: (§1)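 Relative viability equals treated-well nuclei counts divided by vehicle-well nuclei counts. Counts came from 4× images of lung cancer cell lines grown in 1536-well plates for 5 days after pin-tool dosing on the day after seeding. Dosing used one drug alone or a fixed anchor-drug dose plus five library-drug doses (not always all listed) in √10 steps, and values are medians of duplicate plates.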

[2] = compound: Cc1ccc(NC(=O)c2ccc(CN3CCN(C)CC3)cc2)cc1Nc1nccc(-c2cccnc2)n1 [Imatinib] + CS(=O)(=O)CCNCc1ccc(-c2ccc3ncnc(Nc4ccc(OCc5cccc(F)c5)c(Cl)c4)c3c2)o1 [Lapatinib] (partner 2 µM)
Method in brief: as §1

[3] = compound: Cc1ccc(NC(=O)c2ccc(CN3CCN(C)CC3)cc2)cc1Nc1nccc(-c2cccnc2)n1 [Imatinib] + CC(=O)Nc1cccc(-n2c(=O)n(C3CC3)c(=O)c3c(Nc4ccc(I)cc4F)n(C)c(=O)c(C)c32)c1 [Trametinib] (partner 0.02 µM)
Method in brief: as §1

[4] = compound: Cc1ccc(NC(=O)c2ccc(CN3CCN(C)CC3)cc2)cc1Nc1nccc(-c2cccnc2)n1 [Imatinib] + N=C(N)NC(=N)NCCc1ccccc1 [Phenformin] (partner 250 µM)
Method in brief: as §1

Cell Line | relative viability ([1]; first compound 0.02 µM) | relative viability ([1]; first compound 0.06325 µM) | relative viability ([1]; first compound 0.6325 µM) | relative viability ([1]; first compound 2 µM) | relative viability ([2]; first compound 0.02 µM) | relative viability ([2]; first compound 0.6325 µM) | relative viability ([2]; first compound 2 µM) | relative viability ([3]; first compound 0.02 µM) | relative viability ([3]; first compound 0.06325 µM) | relative viability ([3]; first compound 0.2 µM) | relative viability ([3]; first compound 0.6325 µM) | relative viability ([3]; first compound 2 µM) | relative viability ([4]; first compound 0.02 µM) | relative viability ([4]; first compound 0.2 µM) | relative viability ([4]; first compound 0.6325 µM) | relative viability ([4]; first compound 2 µM) | relative viability ([2]; first compound 0.2 µM) | relative viability ([1]; first compound 0.2 µM) | relative viability ([2]; first compound 0.06325 µM) | relative viability ([4]; first compound 0.06325 µM)
201T | 0.996 | 0.405 | 0.954 | 0.984 | 0.993 | 0.989 | 0.989 | 0.694 | 0.697 | 0.738 | 0.681 | 0.7 | 0.433 | 0.469 | 0.435 | 0.437 |  |  |  | 
A-427 |  |  |  |  |  | 1.12 | 0.952 | 0.745 | 0.786 | 0.757 | 0.76 | 0.712 | 0.327 | 0.316 | 0.27 | 0.237 | 1.05 |  |  | 
ABC-1 | 1.21 |  | 1.02 | 1.24 | 1.25 | 0.312 | 1.11 |  |  |  |  |  | 0.252 | 0.224 | 0.305 | 0.187 | 1.31 | 1.37 | 0.727 | 
BEN | 0.526 | 0.654 | 0.547 | 0.556 |  | 0.697 | 0.54 | 1.09 | 1.02 | 1.05 | 1.1 | 1.1 | 0.257 | 0.258 | 0.287 | 0.243 | 0.725 | 0.634 | 0.465 | 
CAL-12T | 0.854 | 0.69 | 0.78 | 0.711 | 0.631 | 0.705 | 0.667 | 0.336 | 0.324 | 0.321 | 0.411 | 0.398 | 0.558 | 0.674 | 0.618 | 0.555 | 0.938 | 0.828 | 0.609 | 
COR-L23 | 0.523 | 0.519 | 0.399 | 0.41 | 1.13 | 0.922 | 0.829 | 0.636 | 0.494 | 0.72 | 0.697 | 0.648 | 0.469 | 0.496 | 0.419 | 0.422 | 1.41 | 0.424 | 0.791 | 0.541
COR-L 105 | 1.12 | 0.858 | 0.701 | 0.841 | 0.398 | 0.368 | 0.385 | 0.44 | 0.495 | 0.452 | 0.433 | 0.419 | 0.51 | 0.453 | 0.497 | 0.373 | 0.351 | 0.825 | 0.361 | 0.632
ChaGo-K-1 | 0.804 |  | 0.761 | 0.697 |  |  |  | 0.927 |  | 0.833 | 0.81 | 0.871 | 0.425 | 0.505 | 0.426 | 0.432 |  | 0.79 |  | 0.485
EBC-1 |  |  |  |  | 0.182 | 0.195 | 0.168 |  |  |  |  |  |  |  |  |  | 0.216 |  | 0.187 | 
EKVX | 0.665 |  | 0.881 | 0.699 | 0.222 | 0.208 | 0.197 | 0.376 |  | 0.295 | 0.325 |  |  | 0.22 | 0.226 | 0.242 | 0.197 | 0.753 | 0.189 | 0.249
EMC-BAC-2 | 0.514 | 0.497 | 0.522 | 0.514 | 0.937 | 0.972 | 0.873 | 0.887 | 1 | 0.904 | 1.07 | 0.853 | 0.572 | 0.555 | 0.467 | 0.46 | 0.833 | 0.492 | 0.702 | 0.632
EPLC-272H | 0.351 |  | 0.309 | 0.422 | 0.779 | 1.17 | 0.835 | 0.256 |  |  | 0.295 | 0.268 | 0.308 | 0.273 | 0.322 | 0.442 | 0.97 |  |  | 
H3255 | 0.873 |  |  | 0.588 | 0.234 | 0.266 | 0.23 | 0.589 |  | 0.635 | 0.616 | 0.609 | 0.326 | 0.378 | 0.335 | 0.376 | 0.268 | 0.765 |  | 0.377
HARA | 0.615 |  | 0.546 | 0.653 | 0.629 | 0.748 | 0.781 | 0.583 | 0.574 | 0.633 | 0.467 | 0.727 | 0.57 | 0.439 | 0.39 | 0.387 | 0.83 | 0.595 | 0.996 | 
HCC-15 | 0.857 |  | 0.854 | 0.765 |  | 0.901 | 0.839 | 0.399 |  | 0.411 | 0.406 | 0.359 | 0.502 | 0.518 | 0.451 | 0.433 | 1 | 0.917 | 0.582 | 
HCC-44 | 1.12 |  | 1.14 | 1.04 | 1.13 | 0.991 | 0.934 | 1.1 |  | 1.24 | 0.94 | 1.11 | 0.252 | 0.222 | 0.196 | 0.192 |  | 1.14 | 1.15 | 0.22
